In patent publication US20220389003A1, “4-SUBSTITUTED INDOLE AND INDAZOLE SULFONAMIDO DERIVATIVES AS PARG INHIBITORS” (IDEAYA BIOSCIENCES, INC., priority 2019, published 2022):
pIC50: −log10 of the molar value. Read-outs that look alike come from different tables or passages of the source.

Key:
[1] = system: HCC1806-XRCC1 KD (knock down) cells; assay: Cellular viability assay (Cell Titer-Glo); type: cell-based; conditions: HCC1806-shXRCC1 cells, 4 days of incubation, read-out: PARGi cell viability
Procedure: HCC1806-XRCC1 KD (knock down) cells were plated at 2000 cells/well in 96-well white plates with clear flat bottom. After 24 hours, the compounds of the disclosure were added starting at 30 μM for a 9-point dose response curve at 1:3 dilution. The compounds of the disclosure were added by Tecan digital dispenser excluding the outermost wells of the plate. All treatments were done in duplicates. After 4 days of incubation, 50 ul of Cell Titer-Glo (Promega) was added per well. After incubation with the reagent for 15 minutes, luminescence was read using a plate reader (TECAN). Average values of DMSO treated wells in a plate was calculated. All data points were normalized to that of the average DMSO value. The % of control for each sample compared to DMSO treated control samples. Curves are fit as % of control vs. log [compound concentration] using a 4 parameter inhibition model (Levenberg-Marquardt algorithm):
Fit=(A+((B−A)/(1+((C/x)^D))))

[2] = molecular target: T1, PARG (Homo sapiens, UniProt Q86W56); assay: Inhibition of PARG enzymatic assay (TR-FRET enzymatic IC50 assay); type: biochemical; design: purchased Peak Proteins; conditions: hPARG 250 pM, biotinylated-PARylated PARP substrate 30 nM
T1 sequence (Q86W56 whole entry): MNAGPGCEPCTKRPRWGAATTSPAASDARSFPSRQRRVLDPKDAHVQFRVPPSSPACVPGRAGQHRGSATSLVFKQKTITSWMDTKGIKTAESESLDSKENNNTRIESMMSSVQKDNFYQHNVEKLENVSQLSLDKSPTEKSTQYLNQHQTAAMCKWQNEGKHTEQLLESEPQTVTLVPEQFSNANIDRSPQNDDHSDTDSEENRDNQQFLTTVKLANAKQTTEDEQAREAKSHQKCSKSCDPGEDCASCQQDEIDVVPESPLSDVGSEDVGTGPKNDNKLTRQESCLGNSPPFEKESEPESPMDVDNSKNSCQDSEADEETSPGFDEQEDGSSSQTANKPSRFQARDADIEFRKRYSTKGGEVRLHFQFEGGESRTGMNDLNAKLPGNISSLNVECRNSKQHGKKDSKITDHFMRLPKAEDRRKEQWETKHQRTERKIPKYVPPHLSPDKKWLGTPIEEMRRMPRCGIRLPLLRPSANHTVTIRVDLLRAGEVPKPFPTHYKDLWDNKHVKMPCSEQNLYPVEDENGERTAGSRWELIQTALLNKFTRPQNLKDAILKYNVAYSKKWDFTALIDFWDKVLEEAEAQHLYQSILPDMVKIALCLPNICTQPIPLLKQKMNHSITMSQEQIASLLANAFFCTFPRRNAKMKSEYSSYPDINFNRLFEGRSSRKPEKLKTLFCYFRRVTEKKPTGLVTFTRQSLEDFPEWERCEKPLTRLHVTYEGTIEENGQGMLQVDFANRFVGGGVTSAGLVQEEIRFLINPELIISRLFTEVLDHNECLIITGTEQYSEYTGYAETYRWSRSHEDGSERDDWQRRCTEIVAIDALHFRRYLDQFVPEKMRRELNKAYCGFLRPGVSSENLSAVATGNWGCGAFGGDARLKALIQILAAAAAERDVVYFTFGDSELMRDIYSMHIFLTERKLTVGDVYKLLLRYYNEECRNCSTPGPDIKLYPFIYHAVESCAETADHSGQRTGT
Procedure: PARG enzyme was incubated with compound or vehicle (DMSO) and the biotinylated-PARylated PARP substrate in a microtiter plate. After adding detection antibody and streptavidin-europium, and then incubating, the plate was read for fluorescence intensity. The low control (DMSO) with low fluorescence intensity represents no inhibition of enzymatic reaction while the high control (no enzyme) with high fluorescence intensity represents full inhibition of enzymatic reaction.
• PARG • hPARG: 250 pM, His-tagged, Peak Proteins, 0.96 mg/mL (8.58 μM) • Substrate: 30 nM • Reaction time: 70 minutes • Substrate: hPARP1, His- and TEV-tagged, Peak Proteins, 14 μM • Detection Antibody: anti-His monoclonal antibody-ULight, Perkin Elmer catalog #TRF0105-M • Streptavidin-Europium: Perkin Elmer catalog #AD0062 • Assay buffer: 50 mM Tris-HCl pH 7.4, 50 mM KCl, 3 mM EDTA, 0.4 mM EGTA, 1 mM DTT, 0.01% Tween 20, 0.01% BSA • Temperature: 23° C. • Total volume: 20 μL
• 0% inhibition control: DMSO • 100% inhibition control: No enzyme
• 1. Transfer 5 μL of 3× final concentration of test compounds or DMSO to the appropriate wells of a microtiter plate. • 2. Centrifuge the plate at 1000 rpm for 1 minute. • 3. Transfer 5 μL of 3× final concentration of enzyme in assay buffer or assay buffer alone to the appropriate wells. • 4. Centrifuge the plate at 1000 rpm for 1 minute. • 5. Incubate the plate at room temperature for 1 hour. • 6. Transfer 5 μL of 3× substrate in assay buffer to all the test wells. • 7. Centrifuge the plate at 1000 rpm for 1 minute. • 8. Incubate the plate at room temperature for 10 minutes. • 9. Transfer 5 μL of 3× mixture of detection antibody and streptavidin-europium in assay buffer to all the test wells. • 10. Centrifuge the plate at 1000 rpm for 1 minute. • 11. Incubate the plate at room temperature for 1 hour. • 12. Read the plate on a plate reader (e.g., Infinite M1000).

[3] = molecular target: T1, PARG; assay: Inhibition of PARG cellular assay (PAR foci in HeLa cells after MMS); type: cell-based; design: endogenous in cells; host or cells: HeLa; conditions: compound 1 h then MMS 1 h
Procedure: The ability of the compounds disclosed herein to inhibit PARG was determined as described below. Briefly, after treating HeLa cells with the compounds of the disclosure for 1 h, followed by treatment with DNA alkylating agent methylmethanesulfonate (MMS) for an additional 1 h, the cells were fixed in 3.7% formaldehyde. The cells were permeabilized in 0.5% Triton-X100, blocked in 5% goat serum, and incubated with mouse monoclonal antibody against poly (ADP) ribose (PAR) polymer overnight at 4° C. The cells were washed and incubated with an Alexafluor 488-linked secondary antibody together with a nuclear stain (Hoechst 33342) for an hour at room temperature. After washing, images of the cells were captured and analyzed on a high content imaging microscope and software. Two measurement of PAR chain were quantified with the mean intensity over background of the nuclear foci (fluorescent signal at 488 nm range 0.3-2.0 μm foci) quantified as PAR foci (PAR Foci IC50). The cells with a PAR foci signal >1.3 was considered as positive (PAR % positive IC50), and the percentage positive cells are quantified.

| pIC50 ([1]; 96 h) | pIC50 [2] | pIC50 [3] | pIC50 [1] | Structure (SMILES) |
| --- | --- | --- | --- | --- |
| 5.00 to 6.00 | ≥ 7.00 | 6.52 to 7.00 | – | CN1CC2CN(c3cc(S(=O)(=O)NC4(C#N)CC4)cc4c3cnn4-c3nnc(C(F)F)s3)CCN2C1=O (single isomer, unassigned) [Example 71, 1-[({4-(8-methyl-7-oxo-3,6,8-triazabicyclo[4.3.0]non-3-yl)-1-[5-(difluoromethyl)-(1,3,4-thiadiazol-2-yl)]-1H-indazol-6-yl}sulfonyl)amino]cyclopropane carbonitrile] |
| – | ≥ 7.00 | 6.52 to 7.00 | 5.00 to 6.00 | CN1CC2CN(c3cc(S(=O)(=O)NC4(C#N)CC4)cc4c3cnn4-c3nnc(C(F)F)s3)CCN2C1=O (single isomer, unassigned) [Example 72, 1-[({4-(8-methyl-7-oxo-3,6,8-triazabicyclo[4.3.0]non-3-yl)-1-[5-(difluoromethyl)-(1,3,4-thiadiazol-2-yl)]-1H-indazol-6-yl}sulfonyl)amino]cyclopropane carbonitrile] |
| 4.52 to 4.70 | 5.00 to 6.00 | 5.00 to 6.00 | – | N#CC1(NS(=O)(=O)c2cc(-c3ccccc3)c3cnn(-c4nnc(C(F)F)s4)c3c2)CC1 [Example 1, 1-[({1-[5-(difluoromethyl)(1,3,4-thiadiazol-2-yl)]-4-phenyl-1H-indazol-6-yl}sulfonyl)amino]cyclopropanecarbonitrile] |
| 4.52 to 4.70 | ≥ 7.00 | 6.00 to 6.52 | – | Cn1cc(-c2cc(S(=O)(=O)NC3(C#N)CC3)cc3c2cnn3-c2nnc(C(F)F)s2)ccc1=O [Example 5, N-(1-cyanocyclopropyl)-1-(5-(difluoromethyl)-1,3,4-thiadiazol-2-yl)-4-(1-methyl-6-oxo-1,6-dihydropyridin-3-yl)-1H-indazole-6-sulfonamide] |
| 4.52 to 4.70 | 5.00 to 6.00 | 5.00 to 6.00 | – | N#CC1(NS(=O)(=O)c2cc(C3CC3)c3cnn(-c4nnc(C(F)F)s4)c3c2)CC1 [Example 6, 1-[({1-[5-(difluoromethyl)(1,3,4-thiadiazol-2-yl)]-4-cyclopropyl-1H-indazol-6-yl}sulfonyl)amino]cyclopropanecarbonitrile] |
| 5.00 to 6.00 | 6.00 to 6.52 | 6.00 to 6.52 | – | N#CC1(NS(=O)(=O)c2cc(C3=CCC4(CC3)COC4)c3cnn(-c4nnc(C(F)F)s4)c3c2)CC1 [Example 7, 1-[({1-[5-(difluoromethyl)(1,3,4-thiadiazol-2-yl)]-4-(2-oxaspiro[3.5]non-6-en-7-yl)-1H-indazol-6-yl}sulfonyl)amino]cyclopropanecarbonitrile] |
| 5.00 to 6.00 | 6.52 to 7.00 | ≥ 7.00 | – | N#CC1(NS(=O)(=O)c2cc(C3CCC4(CC3)COC4)c3cnn(-c4nnc(C(F)F)s4)c3c2)CC1 [Example 8, 1-[({1-[5-(difluoromethyl)(1,3,4-thiadiazol-2-yl)]-4-(2-oxaspiro[3.5]non-7-yl)-1H-indazol-6-yl}sulfonyl)amino]cyclopropanecarbonitrile] |
| 4.70 to 5.00 | 6.00 to 6.52 | 5.00 to 6.00 | – | N#CC1(NS(=O)(=O)c2cc(-c3ccccn3)c3cnn(-c4nnc(C(F)F)s4)c3c2)CC1 [Example 14, 1-[({1-[5-(difluoromethyl)(1,3,4-thiadiazol-2-yl)]-4-(2-pyridyl)-1H-indazol-6-yl}sulfonyl)amino]cyclopropanecarbonitrile] |
| 5.00 to 6.00 | ≥ 7.00 | 6.00 to 6.52 | – | N#CC1(NS(=O)(=O)c2cc(-c3ccncn3)c3cnn(-c4nnc(C(F)F)s4)c3c2)CC1 [Example 15, 1-[({1-[5-(difluoromethyl)(1,3,4-thiadiazol-2-yl)]-4-pyrimidin-4-yl-1H-indazol-6-yl}sulfonyl)amino]cyclopropanecarbonitrile] |
| 5.00 to 6.00 | 6.52 to 7.00 | 6.00 to 6.52 | – | COc1nccc(-c2cc(S(=O)(=O)NC3(C#N)CC3)cc3c2cnn3-c2nnc(C(F)F)s2)n1 [Example 21, 1-[({1-[5-(difluoromethyl)(1,3,4-thiadiazol-2-yl)]-4-(2-methoxypyrimidin-4-yl)-1H-indazol-6-yl}sulfonyl)amino]cyclopropanecarbonitrile] |
| > 6.00 | ≥ 7.00 | ≥ 7.00 | – | CC1(NS(=O)(=O)c2cc(N3CCC4(CC3)COC4)c3cnn(-c4nnc(C(F)F)s4)c3c2)CC1 [Example 23, ({1-[5-(difluoromethyl)(1,3,4-thiadiazol-2-yl)]-4-(2-oxa-7-azaspiro[3.5]non-7-yl)(1H-indazol-6-yl)}sulfonyl)(methylcyclopropyl)amine] |
| > 6.00 | ≥ 7.00 | ≥ 7.00 | – | CN(C)C(=O)N1CCN(c2cc(S(=O)(=O)NC3(C)CC3)cc3c2cnn3-c2nnc(C(F)F)s2)CC1 [Example 24, [4-(1-[5-(difluoromethyl)(1,3,4-thiadiazol-2-yl)]-6-{[(methylcyclopropyl)amino]sulfonyl}(1H-indazol-4-yl))piperazinyl]-N,N-dimethylcarboxamide] |
| > 6.00 | ≥ 7.00 | ≥ 7.00 | – | N#CC1(NS(=O)(=O)c2cc(N3CCC4(CC3)COC4)c3cnn(-c4nnc(C(F)F)s4)c3c2)CC1 [Example 25, 1-[({1-[5-(difluoromethyl)(1,3,4-thiadiazol-2-yl)]-4-(2-oxa-7-azaspiro[3.5]non-7-yl)-1H-indazol-6-yl}sulfonyl)amino]cyclopropanecarbonitrile] |
| 5.00 to 6.00 | ≥ 7.00 | 6.52 to 7.00 | – | C[C@@H]1CN(c2cc(S(=O)(=O)NC3(C#N)CC3)cc3c2cnn3-c2nnc(C(F)F)s2)CCO1 [Example 26, 1-[({4-((2R)-2-methylmorpholin-4-yl)-1-[5-(difluoromethyl)(1,3,4-thiadiazol-2-yl)]-1H-indazol-6-yl}sulfonyl)amino]cyclopropanecarbonitrile] |
| 5.00 to 6.00 | – | 6.00 to 6.52 | – | N#CC1(NS(=O)(=O)c2cc(N3CCN(C=O)CC3)c3cnn(-c4nnc(C(F)F)s4)c3c2)CC1 [Example 49, 1-[({1-[5-(difluoromethyl)(1,3,4-thiadiazol-2-yl)]-4-(4-formylpiperazinyl)-1H-indazol-6-yl}sulfonyl)amino]cyclopropanecarbonitrile] |
| > 6.00 | – | ≥ 7.00 | – | N#CC1(NS(=O)(=O)c2cc(N3CCN(C(=O)C4CCC4)CC3)c3cnn(-c4nnc(C(F)F)s4)c3c2)CC1 [Example 81, 1-[({1-[5-(difluoromethyl)(1,3,4-thiadiazol-2-yl)]-4-[4-(cyclobutylcarbonyl)piperazinyl]-1H-indazol-6-yl}sulfonyl)amino]cyclopropanecarbonitrile] |

| Structure (SMILES) | pIC50 ([1]; 96 h) | pIC50 [2] | pIC50 [3] | pIC50 [1] |
| --- | --- | --- | --- | --- |
| CC(C)C(=O)N1[C@@H]2CC[C@H]1CN(c1cc(S(=O)(=O)NC3(C#N)CC3)cc3c1cnn3-c1nnc(C(F)F)s1)C2 [Example 37, 1-[({4-[(1S,5R)-8-(2-methylpropanoyl)-3,8-diazabicyclo[3.2.1]oct-3-yl]-1-[5-(difluoromethyl)(1,3,4-thiadiazol-2-yl)]-1H-indazol-6-yl}sulfonyl)amino]cyclopropane carbonitrile] | 5.00 to 6.00 | – | ≥ 7.00 | – |
